# Source: US20150094217A1, “TEST FOR DIAGNOSING RESISTANCE TO AZACITIDINE” (UNIVERSITÉ NICE SOPHIA ANTIPOLIS, priority 2012, published 2015)
# Experiments:
# [1] = tested on: SKM1-S cells; assay: Cell metabolism by XTT test after azacitidine stimulation; assay type: cell-based; conditions: 1 μM azacitidine, 24 h
# Procedure: The SKM1-S and SKM1-R cells are transfected with an interfering RNA:Luc siRNA, BCL2L10 siRNA or Bcl-2 siRNA. After 72 h of transfection, the cells are stimulated with 1 μM of azacitidine.
# In FIG. 7, the cell metabolism is measured 24 hours after stimulation by means of the XTT test ([…]). The results shown correspond to the average standard error of the mean (±SEM) of three independent experiments performed four times.
# To determine whether the overexpression of BCL2L10 is a cause rather than a consequence of azacitidine resistance, the SKM1-S and SKM1-R cells were transfected with a control siRNA or with siRNA directed against one or the other of the BCL2L10 or Bcl-2 proteins, then treated for 24 h with or without azacitidine, before determining cell viability and apoptosis. […] In addition, apoptosis was the main mechanism by which the extinction of the expression of the BCL2L10 gene enabled azacitidine sensitization by increasing the quantity of active caspase-3.
# [2] = Overall survival (Kaplan-Meier) of MDS or AML patients treated with AZA, cohort 1; assay type: in vivo, human
# Description: The comparison of the overall survival with transplantation according to Kaplan-Meier was examined for patients with MDS or AML treated with AZA, as well as the percentage of cells expressing BCL2L10 in their bone marrow.
# An overall survival of 3 months was estimated at 95% for the sub-groups weakly expressing BCL2L10 compared with 51% for the sub-groups strongly expressing BCL2L10. For all of the patients in the sub-group strongly expressing BCL2L10, the disease progressed.
compound,measurement,setting,value
Nc1ncn([C@@H]2O[C@H](CO)[C@@H](O)[C@H]2O)c(=O)n1 [Azacitidine],cell metabolism,[1],loss in cell metabolism
same,overall survival of 3 months,"[2]; sub-groups strongly expressing BCL2L10, cohort 1",51%
same,overall survival of 3 months,"[2]; sub-groups weakly expressing BCL2L10, cohort 1",95%
